Source: US10780101B2, “Amide derivatives of squalamine for the treatment of infections” (VIRBAC, priority 2016, dated 2020)
In brackets after ≈: the same amount, converted by molar mass. Read-outs that look alike come from different tables or passages of the source.

What was measured:
[1] = system: E. faecalis Human ATCC 29212; assay: MIC determination, E. faecalis human ATCC 29212; assay type: cell-based; conditions: Enterococcus faecalis, ATCC29212; Gram-positive; Mueller-Hinton medium, 24 h at 37° C.
In short: (§1)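 MH broth, inoculum OD 0.01/well, 0.5 cascade dilution of test compound (stock 5 mg/mL, DMSO/MeOH 50:50). 37 °C, 24 h, humid. OD620 read → MIC. n=2.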

E. coli Animal (1956) = assay: MIC determination, E. coli animal (1956); assay type: cell-based; conditions: Escherichia coli; Gram-negative; Mueller-Hinton medium, 24 h at 37° C.
In short: as §1

CHO-K1 cells = assay: WST1 cytotoxicity test on CHO-K1 cells; assay type: cell-based, Chinese hamster; conditions: Cricetulus griseus
In short: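 CHO-K1 cells pre-grown 24 h, then exposed to increasing compound concentrations in duplicate for 24 h at 37° C, 5% CO2. Viability read after 20 min with 10% WST-1 in PBS at 450 nm; IC50 from nonlinear regression as concentration cutting viability 50%.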

P. aeruginosa (1051575) [2] = assay: Potentiation of ampicillin activity (combination MIC); assay type: cell-based, Pseudomonas aeruginosa; conditions: ampicillin 4 μg/mL; concentration of compound required to restore antibiotic activity
Experimental: This method requires the use of a 96-well plate: 100 μL of a liquid culture medium are placed in each well and then seeded with the microbial suspension prepared previously. The required volume to be seeded is calculated for an OD of 0.01, which corresponds to about 5×10^6 bacteria in each well. In this plate, the first line corresponds to a negative control (200 μL of sterile culture medium in each well), the second line corresponds to a positive control (100 μL of sterile culture medium+100 μL of the bacterial suspension), and the third line contains 192 μL of culture medium; 8 μL of compound of formula (I) to be tested are placed in each well. Thereafter, a cascade dilution is performed from this line. […] 92 μL of bacterial suspension are then added to lines 3 to 8. The results are read (the determination of the MIC (2 μg/mL of doxycycline) in the presence of X g/mL of compound of formula (I)) after 24 hours of incubation at 37° C. under a humid atmosphere. After 24 hours of incubation at 37° C., 40 μL of nitro tetrazolium iodide are added to each well to reveal the presence of live bacteria by staining the medium pink.
The procedure is identical to that indicated in Example 5 above. […]
The results are given in table V. They indicate the concentration of compound of formula (I) required to be able to restore the activity of the antibiotic under consideration.

[3] = system: S. intermedius Animal (1051997); assay: MIC determination, S. intermedius animal (1051997); assay type: cell-based; conditions: Staphylococcus intermedius; Gram-positive; Mueller-Hinton medium, 24 h at 37° C.
In short: as §1

E. coli Human ATCC 28922 = assay: MIC determination, E. coli human ATCC 28922; assay type: cell-based; conditions: Escherichia coli, ATCC28922; Gram-negative; Mueller-Hinton medium, 24 h at 37° C.
In short: as §1

P. aeruginosa (1051575) [4] = assay: Potentiation of doxycycline activity (combination MIC); assay type: cell-based, Pseudomonas aeruginosa; conditions: for synergism when administered with doxycycline: doxycycline at 2 μg/mL; for MIC - P. aeruginosa (1051575): content of compound of formula (I) to restore the doxycycline activity (at 2 μg/mL): in presence of doxycycline 2 μg/mL, 24 hours at 37° C.
S. aureus Animal (340) = assay: MIC determination, S. aureus animal (340); assay type: cell-based; conditions: Staphylococcus aureus; Gram-positive; Mueller-Hinton medium, 24 h at 37° C.
In short: as §1

[5] = system: S. aureus Human ATCC 25923; assay: MIC determination, S. aureus human ATCC 25923; assay type: cell-based; conditions: Staphylococcus aureus, ATCC25923; Gram-positive; Mueller-Hinton medium, 24 h at 37° C.
In short: as §1

[6] = CHO-K1, 24 h, read-out: IC50 (μg/mL) CHO
[7] = CHO-K1, read-out: IC50 (μg/mL) CHO

SMILES | MIC [1] | MIC (E. coli Animal (1956)) | IC50 (CHO-K1 cells; [6]) | MIC P. aeruginosa (1051575) compound + ampicillin (P. aeruginosa (1051575) [2]) | MIC [3] | MIC (E. coli Human ATCC 28922) | synergism when administered with doxycycline (P. aeruginosa (1051575) [4]) | MIC - P. aeruginosa (1051575): content of compound of formula (I) to restore the doxycycline activity (at 2 μg/mL) (P. aeruginosa (1051575) [4]) | MIC (S. aureus Animal (340)) | MIC [5] | IC50 (CHO-K1 cells; [7])
CC(C)NC(=O)CC[C@@H](C)[C@H]1CCC2C3CCC4C[C@@H](NCCCNCCCN)CC[C@]4(C)C3C[C@H](O)[C@@]21C (stereo partly drawn) [Compound (2), 3β-norspermidino-N-isopropyldeoxycholamide] | 14 µg/mL (≈ 25.6 µM) | 14 µg/mL (≈ 25.6 µM) | 35 µg/mL (≈ 64 µM) | 28 µg/mL | 1 µg/mL (≈ 1.83 µM) | 14 µg/mL (≈ 25.6 µM) | noteworthy synergism | 0.9 µg/mL | 2 µg/mL (≈ 3.66 µM) | 4 µg/mL (≈ 7.31 µM) | 
CC(C)NC(=O)CC[C@@H](C)[C@H]1CCC2C3C(C[C@H](O)[C@@]21C)[C@@]1(C)CC[C@H](NCCCNCCCN)CC1C[C@H]3O (stereo partly drawn) [(5), 3β-norspermidino-N-isopropylcholamide] | 16 µg/mL (≈ 28.4 µM) | 32 µg/mL (≈ 56.9 µM) | 70 µg/mL (≈ 124 µM) | 64 µg/mL | 4 µg/mL (≈ 7.11 µM) | 16 µg/mL (≈ 28.4 µM) |  | 1 µg/mL | 16 µg/mL (≈ 28.4 µM) | 8 µg/mL (≈ 14.2 µM) | 70 µg/mL (≈ 124 µM)
CC(C)NC(=O)CC[C@@H](C)[C@H]1CCC2C3C(CC[C@@]21C)[C@@]1(C)CC[C@H](NCCCNCCCN)CC1C[C@H]3O (stereo partly drawn) [(8), 3β-norspermidino-N-isopropylchenodeoxycholamide] | 8 µg/mL (≈ 14.6 µM) | 14 µg/mL (≈ 25.6 µM) | 50 µg/mL (≈ 91.4 µM) | 27 µg/mL | 1 µg/mL (≈ 1.83 µM) | 14 µg/mL (≈ 25.6 µM) |  | 2 µg/mL | 3 µg/mL (≈ 5.49 µM) | 6 µg/mL (≈ 11 µM) | 50 µg/mL (≈ 91.4 µM)
CC(C)NC(=O)CC[C@@H](C)[C@H]1CCC2C3C(CC[C@@]21C)[C@@]1(C)CC[C@H](NCCCNCCCNCCCN)CC1C[C@H]3O (stereo partly drawn) [(7), 3β-norspermino-N-isopropylchenodeoxycholamide] | 4 µg/mL (≈ 6.62 µM) | 8 µg/mL (≈ 13.2 µM) | 55 µg/mL (≈ 91.1 µM) | 15 µg/mL | 1 µg/mL (≈ 1.66 µM) | 15 µg/mL (≈ 24.8 µM) |  | 1 µg/mL | 2 µg/mL (≈ 3.31 µM) | 4 µg/mL (≈ 6.62 µM) | 
CC(C)NC(=O)CC[C@@H](C)[C@H]1CCC2C3C(CC[C@@]21C)[C@@]1(C)CC[C@H](NCCCN(C)CCCN)CC1C[C@H]3O (stereo partly drawn) [(27), 3β-(bis(3-aminopropyl)methylamine)-N-isopropylchenodeoxycholamide] | 16 µg/mL (≈ 28.5 µM) | 32 µg/mL (≈ 57 µM) | 100 µg/mL (≈ 178 µM) | 64 µg/mL | 4 µg/mL (≈ 7.13 µM) | 16 µg/mL (≈ 28.5 µM) |  | 2 µg/mL | 8 µg/mL (≈ 14.3 µM) | 8 µg/mL (≈ 14.3 µM) | 100 µg/mL (≈ 178 µM)
CC(C)NC(=O)CC[C@@H](C)[C@H]1CCC2C3C(CC[C@@]21C)[C@@]1(C)CC[C@H](NCCCNCCCN)CC1C[C@@H]3O (stereo partly drawn) [(15), 3β-norspermidino-N-isopropylursodeoxycholamide] | 112 µg/mL (≈ 205 µM) | 112 µg/mL (≈ 205 µM) | 140 µg/mL (≈ 256 µM) | 110 µg/mL | 7 µg/mL (≈ 12.8 µM) | 56 µg/mL (≈ 102 µM) |  | 1 µg/mL | 56 µg/mL (≈ 102 µM) | 28 µg/mL (≈ 51.2 µM) | 85 µg/mL (≈ 155 µM)
CC(C)NC(=O)CC[C@@H](C)[C@H]1CCC2C3CCC4C[C@@H](NCCCN(C)CCCN)CC[C@]4(C)C3C[C@H](O)[C@@]21C (stereo partly shown) [(25)] | 14 µg/mL (≈ 25 µM) | 14 µg/mL (≈ 25 µM) | 48 µg/mL (≈ 85.6 µM) | 56 µg/mL | 2 µg/mL (≈ 3.57 µM) | 14 µg/mL (≈ 25 µM) | noteworthy synergism | 2 µg/mL | 14 µg/mL (≈ 25 µM) | 7 µg/mL (≈ 12.5 µM) | 
CC(C)NC(=O)CC[C@@H](C)[C@H]1CCC2C3C(CC[C@@]21C)[C@@]1(C)CC[C@H](NCCCNCCCCNCCCN)CC1C[C@@H]3O (stereo partly drawn) [Compound (35), 3β-spermino-N-isopropylursodeoxycholamide] | 64 µg/mL (≈ 104 µM) | 64 µg/mL (≈ 104 µM) | 55 µg/mL (≈ 89 µM) | 64 µg/mL | 8 µg/mL (≈ 12.9 µM) | 64 µg/mL (≈ 104 µM) |  | 2 µg/mL | 16 µg/mL (≈ 25.9 µM) | 16 µg/mL (≈ 25.9 µM) | 55 µg/mL (≈ 89 µM)
